Assay results published in US20110275630A1, “ISO[…] INHIBITORS” (ABBOTT LABORATORIES, priority 2003, published 2011).

These compounds were tested against T1, ROCK 2 (Homo sapiens, UniProt O75116) (assay: ROCK kinase activity assays ([33P]-ATP FlashPlate assay / HTRF assay)).
T1 construct: ROCK1 (1.5 nM; Invitrogen) or ROCK2 (0.2 nM; Upstate) catalytic domains; purchased Upstate
Format: biochemical
From the text: [33P]-ATP assay: ROCK activity is initially determined using a radioactive FlashPlate-based assay.

T1 sequence (O75116 92-354 limits assumed, species assumed): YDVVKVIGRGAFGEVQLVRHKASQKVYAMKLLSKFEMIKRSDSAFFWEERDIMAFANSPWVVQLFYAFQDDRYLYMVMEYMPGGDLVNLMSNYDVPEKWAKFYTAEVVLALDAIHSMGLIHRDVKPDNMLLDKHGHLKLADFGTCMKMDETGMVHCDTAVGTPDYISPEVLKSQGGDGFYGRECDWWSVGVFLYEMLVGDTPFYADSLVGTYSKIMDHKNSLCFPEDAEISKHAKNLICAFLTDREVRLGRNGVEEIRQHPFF

| Ki | Structure (SMILES) |
| --- | --- |
| 8.75 nM | O=C(Nc1ccc(-c2cccc3c2CNC3=O)cc1)c1cccc(S(=O)(=O)N2CCOCC2)c1 [Example 135, 3-(morpholin-4-ylsulfonyl)-N-[4-(1-oxo-2,3-dihydro-1H-isoindol-4-yl)phenyl]benzamide] |
| 331 nM | O=C(Nc1ccc(-c2cccc3c2CNC3=O)cc1)c1ccc2c(c1)OCCO2 [Example 134, N-[4-(1-oxo-2,3-dihydro-1H-isoindol-4-yl)phenyl]-2,3-dihydro-1,4-benzodioxine-6-carboxamide] |
| 201 nM | O=C(Nc1ccc(-c2cccc3c2CNC3=O)cc1)c1ccc(N2CCOCC2)nc1 [Example 136, 6-(morpholin-4-yl)-N-[4-(1-oxo-2,3-dihydro-1H-isoindol-4-yl)phenyl]pyridine-3-carboxamide] |
| 12.8 nM | NC1CCN(S(=O)(=O)c2cccc(C(=O)Nc3ccc(-c4cccc5c4CNC5=O)cc3)c2)CC1 [Example 137, 3-[(4-aminopiperidin-1-yl)sulfonyl]-N-[4-(1-oxo-2,3-dihydro-1H-isoindol-4-yl)phenyl]benzamide] |

Further lines, the compound ahead of its results:

| Structure (SMILES) | Ki |
| --- | --- |
| O=C(Nc1ccc(-c2cccc3c2CNC3=O)cc1)c1cc2cc(F)ccc2[nH]1 [Example 131, 5-fluoro-N-[4-(1-oxo-2,3-dihydro-1H-isoindol-4-yl)phenyl]-1H-indole-2-carboxamide] | 32.6 nM |
| O=C(Nc1ccc(-c2cccc3c2CNC3=O)cc1)c1cc2ccccc2o1 [Example 132, N-[4-(1-oxo-2,3-dihydro-1H-isoindol-4-yl)phenyl]-1-benzofuran-2-carboxamide] | 66.1 nM |
| O=C1NCc2c1cccc2-c1ccc(Nc2nc3ccc(Cl)cc3o2)cc1 [Example 139, 4-{4-[(6-chloro-1,3-benzoxazol-2-yl)amino]phenyl}-2,3-dihydro-1H-isoindol-1-one] | 153 nM |
| O=C(Nc1ccc(-c2cccc3c2CNC3=O)cc1)c1cc2ccccc2[nH]1 [Example 140, N-[4-(1-oxo-2,3-dihydro-1H-isoindol-4-yl)phenyl]-1H-indole-2-carboxamide] | 27.4 nM |
